Some results are limits rather than exact numbers.

The values that follow come from patent US7101878B1 (Agouron Pharmaceuticals, Inc., priority 1998, dated 2006).

The first series addresses T1, human GnRH receptor (Homo sapiens, UniProt P30968).
T1 construct: expressed in transfected cells; host or cells: HEK 293 (hGnRH-R/293, from Dr. Stuart Sealfon)
T1 sequence (P30968 1-328): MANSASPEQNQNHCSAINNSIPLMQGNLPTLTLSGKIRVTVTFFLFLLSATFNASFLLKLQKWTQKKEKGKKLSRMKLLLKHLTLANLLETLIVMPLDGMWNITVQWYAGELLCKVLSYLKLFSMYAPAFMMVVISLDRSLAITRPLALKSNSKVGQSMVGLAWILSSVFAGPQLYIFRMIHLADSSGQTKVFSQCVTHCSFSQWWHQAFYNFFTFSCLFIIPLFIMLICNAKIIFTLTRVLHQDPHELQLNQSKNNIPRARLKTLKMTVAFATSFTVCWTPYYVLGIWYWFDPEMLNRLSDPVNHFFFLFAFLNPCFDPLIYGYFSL
Kind of series: Radioligand binding, 125I-GnRH-A displacement, membranes of HEK 293 cells with human GnRH receptor. As to conditions: binding assay conditions. In a few lines: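 Bound tracer was separated by filtration through polyethyleneimine-soaked GF/C filters and counted by liquid scintillation. IC50 from curve fitting; other species were tested under the same conditions.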
For the compound `Cc1cc2c(cc1Cc1ccc(C(=O)Nc3ccccc3)o1)C(C)(C)CCC2(C)C` [Compound 195], the “insolubility remark in hGnRH IC50 cell” value is recorded as “Insol. >3 uM”. Still for that read-out and setting: for `CCCc1nc(NC(=O)c2ccc(Cc3cc4c(cc3C)C(C)(C)CCC4(C)C)o2)ncc1C(=O)OCC` [Compound 198] the value was “Insol. >3 uM”.

The series is the same for the next values; noted with them: read-out: hGnRH IC50.
What is called IC50 is the point on the concentration scale where inhibition reaches its midpoint. On to `COC(=O)CNC(=O)c1ccc(Cc2cc3c(cc2C)C(C)(C)CCC3(C)C)o1` [Compound 164], for which the IC50 amounted to 1970 nM. On to `Cc1cc2c(cc1Cc1ccc(C(=O)NCc3ccc4c(c3)C(C)(C)CCC4(C)C)o1)C(C)(C)CCC2(C)C` [Compound 165], for which the IC50 is over 10000 nM.

In the case of `Cc1cc2c(cc1Cc1ccc(C(=O)NCc3ccc(CN(C)C)cc3)o1)C(C)(C)CCC2(C)C` [Compound 166], the IC50 was 260 nM. Still for that read-out and setting: for `CNc1ccccc1NC(=O)c1ccc(Cc2cc3c(cc2C)C(C)(C)CCC3(C)C)o1` [Compound 167] the value was 7640 nM. `COc1cc(OC)c(NC(=O)c2ccc(Cc3cc4c(cc3C(C)C)C(C)(C)CCC4(C)C)o2)c(OC)c1` [Compound 171]: the IC50 worked out at 1140 nM. For the compound `COc1cc(OC)c(CNC(=O)c2ccc(Cc3cc4c(cc3C)C(C)(C)CCC4(C)C)o2)c(OC)c1` [Compound 172], the half-maximal inhibitory concentration (IC50) is 3200 nM. On the same count and under the same terms, the value for `COc1cc(OC)c([N+](=O)[O-])c(NC(=O)c2ccc(Cc3cc4c(cc3C)C(C)(C)CCC4(C)C)o2)c1[N+](=O)[O-]` [Compound 173] was 2800 nM; that for `Cc1cc2c(cc1Cc1ccc(C(=O)NC3O[C@H](COC(=O)C(C)(C)C)[C@H](OC(=O)C(C)(C)C)[C@H](NC(=O)C(C)(C)C)[C@H]3OC(=O)C(C)(C)C)o1)C(C)(C)CCC2(C)C` (stereo partly shown) [Compound 175] was over 10000 nM; that for `Cc1cc2c(cc1Cc1ccc(C(=O)NC[C@H]3CC[C@H](CNc4ccnc(NC[C@H]5CCCO5)n4)CC3)o1)C(C)(C)CCC2(C)C` [Compound 178] was 185 nM.

`COc1cc(NC(=O)c2ccc(Cc3cc4c(cc3C)C(C)(C)CCC4(C)C)o2)cc(OC)c1` [Compound 179]: the IC50 turned out to be 190 nM. Still for that read-out and setting: for `Cc1cc2c(cc1Cc1ccc(C(=O)NCc3cccc(CNc4ncnc5[nH]ccc45)c3)o1)C(C)(C)CCC2(C)C` [Compound 180] the value was 350 nM.

With `COc1cc(OC)c(NC(=O)c2ccc(Cc3c(C)c(C)c4c(c3C)C=CC(C)(C)O4)o2)c(OC)c1` [Compound 184], the IC50 was found to be 560 nM. As to `COc1ccc(OC)c(Cc2ccc(C(=O)Nc3c(OC)cc(OC)cc3OC)o2)c1` [Compound 186], the IC50 amounted to 7310 nM.

In the case of `COC(=O)N1CCC(C)(C)c2cc(OC)cc(Cc3ccc(C(=O)Nc4c(OC)cc(OC)cc4OC)o3)c21` [Compound 187], the IC50 worked out at 9000 nM.

Regarding `Cc1cc2c(cc1Cc1ccc(C(=O)Nc3c(O)cccc3O)o1)C(C)(C)CCC2(C)C` [Compound 189], the IC50 turned out to be 940 nM. Turning to `COc1cc(OC)c(NC(=O)c2ccc(C(=O)c3cc4c(cc3C)C(C)(C)CCC4(C)C)o2)c(OC)c1` [Compound 190], the IC50 is 420 nM.

Take `Cc1cc(C)c2ccc(NC(=O)c3ccc(Cc4cc5c(cc4C)C(C)(C)CCC5(C)C)o3)nc2n1` [Compound 191]: the IC50 worked out at 4240 nM. As to `CCOc1cccc(O)c1NC(=O)c1ccc(Cc2cc3c(cc2C)C(C)(C)CCC3(C)C)o1` [Compound 192], the IC50 turned out to be 235 nM. Same read-out and setting: the value for `Cc1cc2c(cc1Cc1ccc(C(=O)Nc3c(O)cccc3OC(=O)c3ccc(Cc4cc5c(cc4C)C(C)(C)CCC5(C)C)o3)o1)C(C)(C)CCC2(C)C` [Compound 193] was over 10000 nM. `Cc1cc2c(cc1Cc1ccc(C(=O)Nc3ccccc3)o1)C(C)(C)CCC2(C)C` [Compound 195]: the IC50 is 320 nM. Turning to `COC(CNC(=O)c1ccc(Cc2cc3c(cc2C)C(C)(C)CCC3(C)C)o1)OC` [Compound 196], the IC50 is 760 nM. For `COc1cc(OC)c(NC(=O)c2ccc(Cc3c(C)c(C)c(C)c(C)c3C)o2)c(OC)c1` [Compound 197], the half-maximal inhibitory concentration (IC50) was found to be 1040 nM. Regarding `CCCc1nc(NC(=O)c2ccc(Cc3cc4c(cc3C)C(C)(C)CCC4(C)C)o2)ncc1C(=O)OCC` [Compound 198], the IC50 worked out at 780 nM. On the same count and under the same terms, for `CCOC(=O)N1CCC(C)(C)c2c(Cc3ccc(C(=O)Nc4c(OC)cc(OC)cc4OC)o3)c(OC)cc(OC)c21` [Compound 200.5] the value was 1230 nM; for `COc1ccc(OC)c(Cc2ccc(C(=O)Nc3c(OC)cccc3OC)o2)c1` [Compound 202], 1420 nM. Still for that read-out and setting: the value for `COc1cccc(OC)c1NC(=O)c1ccc(Cc2c(C)c(C)c(C)c(C)c2C)o1` [Compound 204] was 1270 nM. On the same count and under the same terms, the value for `Cc1cc2c(cc1Cc1ccc(C(=O)Nc3ncc([N+](=O)[O-])cn3)o1)C(C)(C)CCC2(C)C` [Compound 205] was over 10000 nM.

As for `COc1cc(OC)c(NC(=O)c2ccc(Cc3cc(OC)cc(OC)c3OC)o2)c(OC)c1` [Compound 208], the IC50 was determined as 8620 nM. Turning to `COc1cc(OC)c(NC(=O)c2ccc(Cc3c(OC)ccc(OC)c3OC)o2)c(OC)c1` [Compound 209], the IC50 was 4380 nM.

As to `COc1ccc(OC)c(OC)c1Cc1ccc(C(=O)Nc2c(OC)cccc2OC)o1` [Compound 211], the half-inhibitory concentration (IC50) was found to be 1320 nM. With `Cc1cc2c(cc1Cc1ccc(C(=O)N3CCN(CCN(Cc4ccccn4)C(=O)c4ccc(Cc5cc6c(cc5C)C(C)(C)CCC6(C)C)o4)CC3)o1)C(C)(C)CCC2(C)C` [Compound 213], the IC50 is over 10000 nM.

As for `Cc1cc2c(cc1Cc1ccc(C(=O)N(CCCO)Cc3ccccn3)o1)C(C)(C)CCC2(C)C` [Compound 214], the half-maximal inhibitory concentration (IC50) was over 10000 nM. For `Cc1cc2c(cc1Cc1ccc(C(=O)N(Cc3ccccn3)CC(C)C)o1)C(C)(C)CCC2(C)C` [Compound 215], the IC50 is 7800 nM. For `CCOC(=O)CN(Cc1ccccn1)C(=O)c1ccc(Cc2cc3c(cc2C)C(C)(C)CCC3(C)C)o1` [Compound 216], the half-maximal inhibitory concentration (IC50) is 4400 nM.

On to `COc1cc(OC)c(NC(=O)c2cc(Cc3cc4c(cc3C)C(C)(C)CCC4(C)C)on2)c(OC)c1` [Compound 218], for which the IC50 worked out at 6460 nM. On the same count and under the same terms, for `COc1cc(OC)c(Cc2ccc(C(=O)Nc3c(OC)cc(OC)cc3OC)o2)c(OC)c1` [Compound 219] the value was 875 nM; for `COc1cc(OC)c(Cc2ccc(C(=O)Nc3c(OC)cccc3OC)o2)c(OC)c1` [Compound 220], 630 nM; for `COc1cc(OC)c(NC(=O)c2ccc(Cc3c(OC)ccc4c3CCCC4=O)o2)c(OC)c1` [Compound 223], 1660 nM. For the compound `COc1cc(OC)c(NC(=O)c2ccc(Cc3cc4c(cc3C)C(C)(C)CCC4(C)C)n2Cc2ccccc2)c(OC)c1` [Compound 224], the IC50 was over 10000 nM. Turning to `COc1cc(OC)c(NC(=O)c2ccc(Cc3cc(OC)c(O)cc3OC)o2)c(OC)c1` [Compound 227], the IC50 is over 10000 nM. Regarding `COc1cc(OC)c(NC(=O)c2ccc(Cc3cc(C(=O)C(C)(C)C)c(OC)cc3OC)o2)c(OC)c1` [Compound 229], the IC50 was 250 nM.

For `COc1cc(OC)c(NC(=O)c2ccc(Cc3cc(C(C)=O)c(C)cc3C)o2)c(OC)c1` [Compound 230], the IC50 is 580 nM. As for `COc1cc(C)c(Cl)c(C)c1Cc1ccc(C(=O)NCc2nc3ccccc3[nH]2)o1` [Compound 234], the IC50 is over 10000 nM.

For `COc1cc(OC)c(OC)cc1Cc1ccc(C(=O)Nc2c(OC)cccc2OC)o1` [Compound 235], the IC50 stood at 3720 nM. Take `Cc1cc(C)cc(NC(=O)c2ccc(Cc3cc4c(cc3C)C(C)(C)CCC4(C)C)o2)c1` [Compound 236]: the IC50 turned out to be 903 nM.

In the case of `COc1cc(C)c(Cl)c(C)c1Cc1ccc(C(=O)NCc2cnc(C)cn2)o1` [Compound 237], the IC50 was over 10000 nM. Still for that read-out and setting: for `CCN(CC)C(=O)c1ccc(Cc2cc3c(cc2C)C(C)(C)CCC3(C)C)o1` [Compound 238] the value was 7830 nM.
